Reference: patent US20240277698A1, “METHODS OF USING ALDOSTERONE SYNTHASE INHIBITORS” (CINCOR PHARMA, INC., priority 2021, published 2024)
Like-named read-outs stand apart in the source and are kept apart here.

What was measured:
[1] = MAD study: urine pharmacokinetics; format: in vivo, human; design: CL renal: unit not given here; conditions: for Ae, D 1 (amount excreted in urine, Day 1) / Ae, D 10 (amount excreted in urine, Day 10) / Fe, D 1 (fraction of dose excreted renally, Day 1) / Fe, D 10 (fraction of dose excreted renally, Day 10) / CL renal: mean; for CL renal: human, urine, oral
Text: For each subject, the study consisted of: • A screening period of up to 28 days; • A 5-day inpatient run-in period during which subjects adhered to a controlled, standardized diet and underwent baseline PD assessments; • A 15-day inpatient treatment period, during which subjects received (R)-compound 1 or placebo once daily for 10 days while adhering to a controlled, standardized diet, followed by PK and PD sampling over an additional 5 days; and • A follow-up visit 3 days (1 day) after discharge from the clinical unit. • A cortisol stimulation test (Cohorts 1 and 2 only) and standing aldosterone assessment (all cohorts) were performed on Days 1 and 10. Serial blood samples for PK and PD were obtained prior to and at specified time points over 24 hours after dosing on Day 1 as well as prior to and at specified time points over 120 hours after dosing on Day 10. In addition, blood samples for PK were collected prior to dosing on Days 8 and 9. Urine for PK and PD measurements was collected over 24 hours starting just prior to dosing on Day 1 as well as over 120 hours starting just prior to dosing on Day 10.

aldosterone synthase = target: T1, aldosterone synthase (Homo sapiens, UniProt P19099); assay: SAD study: plasma and urine aldosterone and precursors (Cortrosyn challenge, standing, normal and low salt diet); format: in vivo; conditions: normal salt diet, low salt diet conditions
T1 construct: synthesized in the adrenal cortex by aldosterone synthase; endogenous in cells; host or cells: adrenal cortex of healthy human subjects (in vivo, oral dosing)
T1 sequence (P19099 25-503): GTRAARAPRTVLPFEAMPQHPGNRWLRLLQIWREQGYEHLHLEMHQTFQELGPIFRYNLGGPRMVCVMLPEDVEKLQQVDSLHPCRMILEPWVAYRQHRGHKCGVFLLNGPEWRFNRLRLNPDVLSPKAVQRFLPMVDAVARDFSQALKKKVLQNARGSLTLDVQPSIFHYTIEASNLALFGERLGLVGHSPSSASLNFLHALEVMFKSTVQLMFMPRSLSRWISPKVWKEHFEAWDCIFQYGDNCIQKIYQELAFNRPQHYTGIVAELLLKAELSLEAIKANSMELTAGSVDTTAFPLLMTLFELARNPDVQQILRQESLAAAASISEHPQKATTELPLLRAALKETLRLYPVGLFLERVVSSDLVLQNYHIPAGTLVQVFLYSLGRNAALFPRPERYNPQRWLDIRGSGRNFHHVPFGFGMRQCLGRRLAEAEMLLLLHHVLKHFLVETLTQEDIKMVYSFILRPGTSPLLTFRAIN
Description: Single doses of (R)-compound 1 reduced plasma and urine aldosterone levels by approximately 85% to 90% in a dose-dependent manner, consistently reaching a maximum effect at a dose of 10 mg (R)-compound 1 under the different conditions tested (Cortrosyn® challenge, standing, normal salt diet, and low salt diet conditions). No change in plasma cortisol levels was apparent across the full dose range tested (0 to 360 mg (R)-compound 1).
A maximum effect on aldosterone reduction was consistently achieved at a dose of 10 mg under the different conditions tested in healthy subjects (Cortrosyn® challenge, standing, normal salt diet, and low salt diet conditions). No change in plasma cortisol levels after the Cortrosyn challenge was apparent across the full dose range tested (0 to 360 mg of (R)-compound 1).
(R)-compound 1 induced a dose-dependent blunting of plasma aldosterone levels as compared to Day −1 baseline and as compared to placebo, with a maximum effect achieved at the 10 mg dose level (approximate 85% to 90% decrease as compared to Day −1). This effect was observed both on the post-Cortrosyn challenge readout (time interval 0 to 4 hours), and on the standing aldosterone peak (time interval 4 to 12 hours) (See FIG. 10).
Notes: Plasma aldosterone levels that were Below limit of quantification were set to the lower limit of quantitation value (5 pg/mL) to allow further calculation. […]

## CCC(=O)N[C@@H]1CCCc2c(-c3ccc4c(c3)CCC(=O)N4C)cncc21 [(R)-Compound 1, (R)—N-(4-(1-methyl-2-oxo-1,2,3,4-tetrahydroquinolin-6-yl)-5,6,7,8-tetrahydroisoquinolin-8-yl)propionamide]
[1]; 0.5 mg QD, normal salt diet
  Ae, D 1 (amount excreted in urine, Day 1): 39952.889 ng
  Ae, D 10 (amount excreted in urine, Day 10): 168181.917 ng
  Fe, D 1 (fraction of dose excreted renally, Day 1): 7.991%
  Fe, D 10 (fraction of dose excreted renally, Day 10): 33.636%
[1]; 1.5 mg QD, normal salt diet
  Ae, D 1 (amount excreted in urine, Day 1): 115762.122 ng
  Ae, D 10 (amount excreted in urine, Day 10): 459968.526 ng
  Fe, D 1 (fraction of dose excreted renally, Day 1): 7.717%
  Fe, D 10 (fraction of dose excreted renally, Day 10): 30.665%
[1]; 2.5 mg QD, low salt diet
  Ae, D 1 (amount excreted in urine, Day 1): 1687233.672 ng
  Ae, D 10 (amount excreted in urine, Day 10): 766791.190 ng
  Fe, D 1 (fraction of dose excreted renally, Day 1): 6.749%
  Fe, D 10 (fraction of dose excreted renally, Day 10): 30.672%
[1]; 2.5 mg QD, normal salt diet
  Ae, D 1 (amount excreted in urine, Day 1): 270541.533 ng
  Ae, D 10 (amount excreted in urine, Day 10): 826482.355 ng
  Fe, D 1 (fraction of dose excreted renally, Day 1): 10.822%
  Fe, D 10 (fraction of dose excreted renally, Day 10): 33.059%
[1]; 5.0 mg QD, low salt diet
  Ae, D 1 (amount excreted in urine, Day 1): 317339.306 ng
  Ae, D 10 (amount excreted in urine, Day 10): 1677304.469 ng
  Fe, D 1 (fraction of dose excreted renally, Day 1): 6.347%
  Fe, D 10 (fraction of dose excreted renally, Day 10): 33.546%
[1]; MAD study
  dose recovered unchanged in the urine, average: approximately 7%
[1]; 0.5 mg, 0.5 mg QD, normal salt diet, read-out: CLR, D 1 (renal clearance, Day 1) (converted)
  CL renal: 0.00888
[1]; 0.5 mg, 0.5 mg QD, normal salt diet, read-out: CLR, D 10 (renal clearance, Day 10) (converted)
  CL renal: 0.00822
[1]; 1.5 mg, 1.5 mg QD, normal salt diet, read-out: CLR, D 1 (renal clearance, Day 1) (converted)
  CL renal: 0.00958
[1]; 1.5 mg, 1.5 mg QD, normal salt diet, read-out: CLR, D 10 (renal clearance, Day 10) (converted)
  CL renal: 0.00733
[1]; 2.5 mg, 2.5 mg QD, low salt diet, read-out: CLR, D 1 (renal clearance, Day 1) (converted)
  CL renal: 0.00797
[1]; 2.5 mg, 2.5 mg QD, low salt diet, read-out: CLR, D 10 (renal clearance, Day 10) (converted)
  CL renal: 0.0085
[1]; 2.5 mg, 2.5 mg QD, normal salt diet, read-out: CLR, D 1 (renal clearance, Day 1) (converted)
  CL renal: 0.0136
[1]; 2.5 mg, 2.5 mg QD, normal salt diet, read-out: CLR, D 10 (renal clearance, Day 10) (converted)
  CL renal: 0.0111
[1]; 5 mg, 5.0 mg QD, low salt diet, read-out: CLR, D 1 (renal clearance, Day 1) (converted)
  CL renal: 0.00815
[1]; 5 mg, 5.0 mg QD, low salt diet, read-out: CLR, D 10 (renal clearance, Day 10) (converted)
  CL renal: 0.00822
Aldosterone synthase
  dose at which maximum effect on aldosterone reduction reached: 10 mg
